Source: patent publication US11330999B2 (MEMORIAL SLOAN KETTERING CANCER CENTER, priority 2017, dated 2022)

Columns and labels:
[1] = Thermal equilibrium T2 at high field (14.1T), CPMG; assay type: physicochemical; details: for T2 Value (s) D2O: 95:5 D2O:H2O, 100 mM Tris pD 7.4; for T2 Value (s) H2O: 100% H2O, 100 mM Tris pH 7.4
Procedure: (§1) [5-^13C]-glutamine (Cambridge Isotope Laboratories), [^13C]-urea (Sigma Aldrich), [^13C, ^15N2]-urea (Sigma Aldrich), [6-^13C]-arginine (Cambridge Isotope Laboratories), [5-^13C, ^15N]-glutamine (24) (24, as described in Example 7) and [6-^13C, ^15N3]-arginine (21, as described in Example 2) were evaluated to determine thermal equilibrium T1 and T2. An aliquot of each compound was dissolved in 95:5 D2O:H2O containing 100 mM Tris pD 7.4 and 100% H2O containing 100 mM Tris pH 7.4. [^13C]-urea and [^13C, ^15N2]-urea were dissolved to a final concentration of 100 mM.
(§2) ^13C NMR spectra for each compound dissolved in 95:5 D2O:H2O and 100% H2O was obtained with a 14.1T ^13C NMR (Bruker, USA). For inversion recovery experiments, 13 to 15 different delay times between the 180° and 90° pulses, spanning 3T1, were sampled. Each spectrum was an average of 3 to 4 scans, and a 5T1 to 6T1 pre-scan wait time was used to allow re-polarization of carbon nuclear spins between scans. T2 values were measured using a Carr-Purcell-Meiboom-Gill (CPMG) sequence for each compound dissolved in 95:5 D2O:H2O and 100% H2O. A 10 ms (or 5 ms ^13C-urea samples) wait-time between 180° pulses was used, and signal was acquired at total echo times spanning 3T2. For both T1- and T2-relaxation curve fitting, spectra were imported into Mnova (Mestrelabs, USA) and the area under the curve (AUC) of the ^13C resonance of interest was integrated. AUC values were exported to Prism 7 (GraphPad Software, USA), plotted against time on the x-axis, and data points were fit to the Bloch equations for T1 and T2.
(§3) When each compound was dissolved in D2O, the exchangeable protons on the nitrogen atoms rapidly exchange with deuterium in the solvent. As described in Table 1, at high field, each compound having protons exchanged with deuterium extended the T1 of ^13C relaxation times directly bonded to —NH or —NH2 residues, respectively. This effect is further illustrated for [6-^13C]-/[6-^13C, ^15N3]-arginine in FIG. 7.

[2] = Hyperpolarized T1 at 1T after dissolution in buffered H2O or D2O; assay type: physicochemical; details: for Hyperpolarized T1 Value (s) D2O: dissolution in 100 mM Tris 1 mM EDTA pD 7.4 D2O; for Hyperpolarized T1 Value (s) H2O: dissolution in 100 mM Tris 1 mM EDTA pH 7.4 H2O
Procedure: Each compound was prepared with a different formulation, as follows: [5-^13C]- and [5-^13C, ^15N]-glutamine was mixed with 1.1 equivalent HCl and dissolved to a final concentration of 1.5 Min H2O:DMSO (65:35). [^13C]— and [^13C, ^15N2]-urea was dissolved to a final concentration of 6M in glycerol. [6-^13C]- and [6-^13C, ^15N3]-arginine was mixed with 1 equivalent HCl and dissolved to a final concentration of 3.2M in H2O. Each of these preparations also contained OX063 radical (General Electric, UK) dissolved to a final concentration of 15 mM. [^13C]—/[^13C, ^15N2]-urea and [6-^13C]-/[6-^13C, ^15N3]-arginine samples were polarized in a 3.35T SpinLab Polarizer (General Electric, UK) for 1.5 hours (0.83K, 93.98 GHz), while: [5-^13C]-/[^13C, ^15N]-glutamine samples were polarized in a 5T SpinLab Polarizer for 2 hours (0.83K, 93.98 GHz). Following polarization, the HP substrate was ejected from the polarizer via rapid dissolution, during which a superheated solution of 100 mM Tris 1 mM EDTA in pH 7.4 H2O or pD 7.4 D2O is run through the sample vial to dissolve the polarized substrate and eject it into a pre-chilled glass vial (−20° C.).

[3] = Thermal equilibrium T1 at high field (14.1T), inversion recovery; assay type: physicochemical; details: for T1 Value (s) D2O: 95:5 D2O:H2O, 100 mM Tris pD 7.4; for T1 Value (s) H2O: 100% H2O, 100 mM Tris pH 7.4
Procedure: as §1, §2, §3

[4] = In vivo 13C EPI imaging of hyperpolarized urea in mouse; details: healthy female Balb/c mouse, monitored for 30 minutes
Procedure: Hyperpolarized [^13C, ^15N2]-urea was studied under clinical imaging conditions. A healthy female Balb/c mouse (12 weeks old) was injected with identical volumes of hyperpolarized [^13C, ^15N]-urea dissolved in either buffered D2O or H2O (FIG. 9A). Both samples were polarized for similar amounts of time and were dissolved to similar final concentrations. Immediately following the end of the injection, an axial 2D ^13C echo-planar imaging (EPI) sequence was initiated with a 3 s repetition time, 16×16 resolution with 2.25 mm×2.25 mm×10 mm voxels.

[5] = FWHM of 13C NMR peaks at 14.1T (quadrupolar relaxation at guanidine-carbon); assay type: physicochemical; details: for FWHM of the guanidine-carbon peak / FWHM of carbon-1: 14.1T 13C NMR; for FWHM of carbon-1: internal standard
Procedure: (§4) To confirm the reduction of quadrupolar relaxation at the guanidine-carbon by ^15N enrichment, ^13C NMR spectra for unlabeled and [6-^13C, 6-^15N3]-L-Arginine-HCl (21, as described in Example 2) was obtained with a 14.1T ^13C NMR. The full width half max (FWHM) of the guanidine-carbon peak was measured, and the FWHM of the carbon-1 peak was used as an internal standard. For hyperpolarized T1 measurements compound 21 was mixed with 1 equivalent HCl and dissolved to a final concentration of 1.3 M in 2:3 H2O:glycerol with 15 mM of a OX063 radical. The sample was polarized for at least 1 h in a SpinSolve polarizer. […] This was performed twice and the calculated T1 values were averaged.
(§5) The FWHM of the guanidine-carbon peak for natural abundance and compound 21 was measured to be 1.4 Hz and 1.0 Hz, respectively, and the FWHM of carbon-1 was 0.9 Hz for both compounds (FIG. 5B).
Therefore, the present methods may be used to follow Arg-1 activity within a tumor and serve as a surrogate readout of TAM infiltration. As such, this information may be used in therapy selection, monitoring therapeutic efficacy, and determining prognosis.

[6] = molecular target: T1, human recombinant arginase-1 (Homo sapiens, UniProt P05089); experiment: Michaelis-Menten kinetics, colorimetric urea assay; assay type: biochemical; details: 37° C., compound as substrate
T1 sequence (P05089 1-322): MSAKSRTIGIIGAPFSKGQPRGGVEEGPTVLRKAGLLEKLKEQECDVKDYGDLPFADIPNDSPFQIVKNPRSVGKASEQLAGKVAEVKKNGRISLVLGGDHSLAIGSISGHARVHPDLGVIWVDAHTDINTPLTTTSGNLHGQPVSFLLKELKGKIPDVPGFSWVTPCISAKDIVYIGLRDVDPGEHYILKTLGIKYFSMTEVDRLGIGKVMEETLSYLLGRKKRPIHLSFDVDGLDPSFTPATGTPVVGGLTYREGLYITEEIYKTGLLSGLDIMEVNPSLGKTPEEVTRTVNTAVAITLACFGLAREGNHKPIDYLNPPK

[7] = molecular target: T2, arginase (Mus musculus, UniProt Q61176); experiment: In vivo conversion of injected labeled arginine to urea in mouse liver (13C-NMR of extract); details: Balb/c mouse, tail vein 250 μL 20 mM, 1 min post-injection, extrapolated to a 1 g liver
T2 construct: from tissue; host or cells: liver of a living Balb/c mouse (in vivo)
T2 sequence (Q61176 1-323): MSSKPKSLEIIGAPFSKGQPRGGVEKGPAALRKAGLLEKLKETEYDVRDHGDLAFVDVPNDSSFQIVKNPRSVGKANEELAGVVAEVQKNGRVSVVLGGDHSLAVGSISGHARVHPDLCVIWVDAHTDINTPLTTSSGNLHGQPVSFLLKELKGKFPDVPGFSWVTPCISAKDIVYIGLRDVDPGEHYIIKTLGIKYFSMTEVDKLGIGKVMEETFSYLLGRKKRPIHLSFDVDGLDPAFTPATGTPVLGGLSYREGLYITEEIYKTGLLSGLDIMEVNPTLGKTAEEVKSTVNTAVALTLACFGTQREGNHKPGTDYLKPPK
Procedure: In vivo assay: A female, Balb/c mouse was equipped with a tail vein cannula and placed under anesthesia (1.5% isoflurane, 1 L/min for 30 mins), after which it was injected with 250 μL 20 mM [6-^13C, ^15N3]-arginine in 100 mM Tris, 1 mM EDTA pH 7.4 (in addition to another 100 μL of 10 U/mL heparin in saline which was in the dead space of the cannula) over the course of 10 seconds. 1 minute post-injection, the mouse was sacrificed via cervical dislocation, and the liver was collected and frozen in liquid nitrogen. 118 mg of the liver was extracted in 4% perchloric acid, the metabolite extract mixture was dried and subsequently re-suspended in D2O containing the glycine standard and 0.5 mM Gd-DOTA. A ^13C-NMR spectrum was acquired on a 600 MHz spectrometer (FIG. 10).

[8] = Hyperpolarized T1 of arginine guanidine-carbon at 1T; assay type: physicochemical; details: 30° flip angle, 3 s repetition time, average of two
Procedure: as §4, §5

T2 Value (s) D2O [1] | T2 Value (s) H2O [1] | Hyperpolarized T1 Value (s) D2O [2] | Hyperpolarized T1 Value (s) H2O [2] | T1 Value (s) D2O [3] | T1 Value (s) H2O [3] | morbidity after the two injections [4] | Compound | FWHM of the guanidine-carbon peak [5] | FWHM of carbon-1 [5] | Vmax [6] | [13C, 15N2]-urea produced, share of the total injected arginine dose [7] | T1 of the guanidine-carbon [8] | decrease of FWHMguanidine:FWHMcarbon-1 ratio ([5]; labeled versus natural abundance arginine) | Km [6]
0.100 ± 0.002 s | 0.089 ± 0.001 s | 123.8 ± 19.6 s | 51.6 ± 5.44 s | 57.24 ± 3.95 s | 31.01 ± 1.18 s |  | N[13C](N)=O [Urea ^13C, [^13C]-urea] |  |  |  |  |  |  | 
34.61 ± 0.64 s | 20.12 ± 0.17 s | 115.9 ± 8.5 s | 53.3 ± 2.6 s | 57.34 ± 2.04 s | 31.97 ± 1.38 s | no obvious morbidity | [15NH2][13C]([15NH2])=O [Urea ^13C, ^15N2, [^13C, ^15N2]-urea] |  |  |  |  |  |  | 
 |  |  |  |  |  |  | N=C(N)NCCC[C@H](N)C(=O)O [natural abundance arginine, arginine] | 1.4 Hz | 0.9 Hz | 54.8 ± 2.2 s⁻¹ |  |  |  | 

Compound | T2 Value (s) D2O [1] | T2 Value (s) H2O [1] | Hyperpolarized T1 Value (s) D2O [2] | Hyperpolarized T1 Value (s) H2O [2] | T1 Value (s) D2O [3] | T1 Value (s) H2O [3] | morbidity after the two injections [4] | FWHM of the guanidine-carbon peak [5] | FWHM of carbon-1 [5] | Vmax [6] | [13C, 15N2]-urea produced, share of the total injected arginine dose [7] | T1 of the guanidine-carbon [8] | decrease of FWHMguanidine:FWHMcarbon-1 ratio ([5]; labeled versus natural abundance arginine) | Km [6]
[6-^13C, 6-^15N3]-L-Arginine-HCl [Compound 21] | 2.68 ± 0.03 s | 0.82 ± 0.02 s | 31.2 ± 6.8 s | 13.3 ± 0.8 s | 9.71 ± 0.26 s | 6.83 ± 0.19 s |  | 1.0 Hz | 0.9 Hz | 48.2 ± 2.0 s⁻¹ | approx. 3% | 20.4 ± 0.4 s | 29% | 2040 ± 270 µM
